Data as given in paper PMC1790702, “Non-Metabolic Membrane Tubulation and Permeability Induced by Bioactive Peptides” (PLoS ONE, 2007).
Like-named read-outs stand apart in the source and are kept apart here.

Key:
[1] = Membrane deformations on giant unilamellar vesicles, phase contrast video-microscopy
Protocol: Giant unilamellar vesicles (GUVs) were obtained by electroformation as described in [49]. Briefly, 1.5 µl of PC/PG (9/1, w/w) solution (0.4 mg/ml in chloroform/methanol 9/1) were spread on each platinum electrode. The lipid film was dried for half an hour under a gentle stream of nitrogen. The chamber was placed in an inverted microscope (Zeiss Axiovert 200M) and a thermocouple positioned to monitor the temperature (25°C). The electrodes were then completely hydrated with 2 ml of a low ionic strength buffer (HEPES 0.5 mM, pH 7.4 and conductivity 20 µS/cm). Immediately after buffer addition, a low frequency alternating field (5 Hz and 1 V) was applied on the electrodes for at least 2 hours. GUVs of diameter between 10 to 100 µm were observed. […] The observation temperature was 25°C.

[2] = LUV aggregation by turbidimetry; conditions: for Peptide/Lipid ratio at which LUVs are aggregated efficiently: discussion, from figure 5; for P/L ratio at the plateau of LUV aggregation / P/L ratio at which LUV aggregation decreases: HEPES 10 mM pH 7.4, 20 min; for P/L ratio at the plateau of LUV aggregation / Peptide/lipid mass ratio (P/L) at which LUV aggregation starts / P/L ratio at which LUV aggregation decreases: 25°C; for Peptide/lipid mass ratio (P/L) at which LUV aggregation starts: turbidity, absorbance at 340 nm, 10 µg LUVs in 500 µl HEPES 10 mM pH 7.4, 20 min after peptide addition; for P/L ratio at which LUV aggregation decreases: peak-like profile
Protocol: (§1) Large unilamellar vesicles (LUV) were prepared by extrusion through a polycarbonate filter (pore diameter 100 nm) in an extrusion device from Avestin as described in [38]. To obtain calcein loaded LUVs, at 2 mg/ml lipid concentration (PC/PG/ [^14C] PC 9/1/0.01 mol ratio), a solution in chloroform was dried under a gentle stream of nitrogen and maintained under vacuum for at least 2 h to ascertain removal of residual solvent. Then, the dried lipid film was hydrated with 1 ml of 70 mM calcein solution in HEPES 10 mM pH 7.4, vigorously vortexed and extruded. Free calcein was separated by passing the suspension trough two gel filtration columns in tandem (Econo-Pac 10 DG, Bio-Rad). The final lipid concentration was quantified measuring the [^14C] PC radiactivity with a liquid scintillation counter LS 6000 SC (Beckman Coulter France).
LUVs aggregation was monitored by turbidimetry (absorbance at 340 nm) in a Cary spectrophotometer (Varian) as described. Peptides were added to a 500 µl quartz cuvette containing 10 µg of LUVs in a HEPES 10 mM pH 7.4 buffer and the absorbance was followed during 20 min after peptide exposure. At this time, membrane aggregation attained the plateau.

[3] = test system: Annexin 2-GFP transfected MDCK cells; assay: Cell permeability, Ca2+ influx monitored by Annexin 2-GFP movement; format: cell-based; conditions: for Permeability towards ions at high peptide concentration: 100 µM peptide; for Permeability towards ions at high peptide concentration / Ca2+ influx and mobilization of annexin 2 from cytosol to the plasma membrane: Annexin 2-GFP MDCK cells; for Cell permeabilization: monitored by calcium permeability inducing annexin 2 movement in MDCK cells; for Ca2+ influx and mobilization of annexin 2 from cytosol to the plasma membrane: 10 µM peptide, in 10 minutes
Protocol: (§2) Annexin 2-GFP expression vector was a kind gift of Dr Stephen Moss (London UK). The annexin2-GFP transfected MDCK cloning will be published elsewhere. MDCK cells were cultured as described. Peptides were added at different concentrations and the annexin-GFP fluorescence was followed in a Zeiss inverted microscope. Films were acquired with Metamorph software. Cytotoxicity in CHO cells was evaluated using the CCK8 cell counting kit (Dojindo Laboratories). Briefly, cell suspension (100 µl, 1500 CHO cells per well) were seeded in DMEM plus 10 % FCS in 96-well microtiter plate at 37°C. 10 µl of peptides were added twice to the cells after 24 and 48 hours of cell culture to obtain concentrations of 1, 10, 20 and 50 µM and the toxicity was evaluated 48 after treatment.

[4] = Small angle X-ray scattering of multilamellar vesicles, electron density profiles; format: physicochemical; conditions: for S^−1 (repeat distance), Ld1 phase / S^−1 (repeat distance), Ld2 phase: 5 mM HEPES pH 7.4, 20°C; for dwater (thickness of the hydration layer), Ld2 phase: peptide-free 2.19; for dwater (thickness of the hydration layer), Ld1 phase: peptide-free 2.23; for dbilayer (thickness of the membrane bilayer), Ld1 phase: peptide-free 3.90; for Change of bilayer thickness, Ld1 phase / Change of membrane thickness, Ld2 phase: versus peptide-free PC/PG (9/1) MLVs, P/L 1/20 (w/w)
Protocol: Briefly, samples for SAXS examination were prepared by dissolving dry lipids in chloroform/methanol (2/1, vol/vol) and mixing to obtain the indicated proportions. The solvent was subsequently evaporated under a stream of oxygen-free dry nitrogen at 45°C and traces of solvent removed by a storage under high vacuum for 2 days. In order to obtain the Multiple Lamellar Vesicles (MLVs) the dry lipids were hydrated with an equal weight of buffer (5 mM HEPES pH 7.4). The aqueous lipid dispersion was thoroughly stirred to obtain a homogeneous dispersion, sealed under argon and kept until examination at 4°C. For X-ray measurements, lipid samples (∼20 µl) were deposited between two thin mica windows and mounted on a programmable thermal stage (Linkam, UK). The temperature was monitored by a thermocouple (Quad Service, Poissy, France) inserted directly into the lipid dispersion. Samples were exposed for 30 seconds to the beam (1.5 Å wavelength). The SAXS quadrant detector response was corrected for the uneven channel response using a static radioactive […] and S was calibrated for d-spacing using hydrated rat tail collagen. Information on the setup, calibration, and facilities are available on the station web site (http://www.srs.dl.ac.uk/ncd/station82/description.html).
The electron density profiles of lipid bilayers were obtained by Fourier synthesis of x-ray diffraction patterns. Integrated densities were derived from five diffraction orders (estimated spatial resolution <0.12 nm) by measuring the area under each diffraction peak separated and integrated using the software Peakfit (Seasolve).

CHO cells = assay: Cytotoxicity, CCK8 cell counting kit; format: cell-based; conditions: for Lethality: after 48 hours of incubation of CHO cells with 10 µM peptides, CCK8, DMEM plus 10 % FCS, 37°C
Protocol: as §2

[5] = Calcein leakage from LUVs; conditions: 25°C; for Calcein release: peptide/lipid ratio of 1/2, LUVs PC/PG/[14C]PC 9/1/0.01, 70 mM calcein, HEPES 10 mM pH 7.4, 5 min after peptide addition, fluorescence, relative to lysis with 1% Triton X-100
Protocol: as §1
The release of calcein after 5 minutes of peptide exposure to LUVs was measured by spectrofluorimetry (Varian eclipse) at excitation and emission wavelengths of 490 nm and 500–650 nm, respectively. […] Leakage was expressed as a percent relative of the total amount of dye released by LUVs lysis with 1% Triton X-100, according to equation: % release = 100×(F(t)−F0)/(FT−F0). F(t) is the fluorescence intensity at time t, F0 is the fluorescence intensity before peptide addition and FT the fluorescence intensity after LUVs lysis.

[6] = Tryptophan fluorescence, membrane binding; conditions: excitation 280 nm, PC/PG (9/1) LUVs, 25°C
Protocol: Tryptophan fluorescence was measured following the recommendations described in [51]. Excitation wavelength was 280 nm, and emission spectrum was collected (290–600 nm). Excitation and emission slits were 6 nm and 5 nm respectively. A cross-oriented configuration of the polarizer (Expol = 90°, Empol = 0°) was used in order to reduce LUVs diffusion artefacts.

[7] = PC/PG (9/1) MLVs, peptide/lipid 1/20 (w/w)
[8] = PC/PG (9/1) MLVs, peptide/lipid 1/20 (w/w), 20°C
[9] = PC/PG (9/1) MLVs, peptide/lipid 1/20 (w/w), 20°C, peptide-free 3.62

Substance | Permeability towards ions at high peptide concentration [3] | Cell permeabilization [3] | S^−1 (repeat distance), Ld1 phase [4, 7] [nm] | S^−1 (repeat distance), Ld2 phase [4, 7] [nm] | dwater (thickness of the hydration layer), Ld2 phase [4, 8] [nm] | dwater (thickness of the hydration layer), Ld1 phase [4, 8] [nm] | dbilayer (thickness of the membrane bilayer), Ld1 phase [4, 8] [nm] | Change of bilayer thickness, Ld1 phase ([4]; 20°C) [Å] | Lethality (CHO cells) [%] | Calcein release [5] [%] | Time for growing micro-tubes to invade the entire vesicle internal volume ([1]; GUVs PC/PG 9/1, 25°C) | Peptide/Lipid ratio at which LUVs are aggregated efficiently [2] | P/L ratio at the plateau of LUV aggregation ([2]; turbidity at 340 nm) | Peptide/lipid mass ratio (P/L) at which LUV aggregation starts [2] | dbilayer (thickness of the membrane bilayer), Ld2 phase [4, 9] [nm] | P/L ratio of peptide-membrane saturation (maximal shift in emission wavelength) [6] | P/L ratio at which LUV aggregation decreases ([2]; turbidity at 340 nm) | Ca2+ influx and mobilization of annexin 2 from cytosol to the plasma membrane [3] | Change of membrane thickness, Ld2 phase ([4]; 20°C) | other results
RPKPQQFFGLM-NH2 [SP, Substance P, neuromodulator, primary amphipathic peptide, free N-terminal amino group, reference compound] | did not induce any increase in permeability towards ions | no | 5.96 | 5.75 | 2.21 | 2.34 | 3.62 | −2.8 | 0 | 8 | – | – | – | – | – | – | – | – | – | GUV morphology at high peptide concentration ([1]; after 6 hours of incubation, 50 µl of peptide solution at 0.5 mM in 2 ml of buffer): did not perturb GUVs morphology; LUV aggregation ([2]; turbidity at 340 nm, HEPES 10 mM pH 7.4, 25°C): does not aggregate LUVs; dbilayer (thickness of the membrane bilayer), Ld2 phase [4]: 3.54 nm
RQIKIWFQNRRMKWKK-NH2 [pAntp, Penetratin, cell-penetrating peptide, basic, non-amphipathic, 16 residues, reference compound] | did not induce any increase in permeability towards ions | no | 6.06 | 5.94 | 2.31 | 2.28 | 3.78 | – | 0 | 11 | less than 20 minutes | 1/20 | 1/15 | 1/25 | 3.63 | 1/10 | – | – | – | –
RRLRRLLRRLLRRLRR-Bi [RL16, secondary amphipathic polyarginine-leucine peptide with biotin (Bi) on N-terminus] | – | yes | 6.20 | 6.01 | 2.26 | 2.27 | 3.93 | – | 55 | 38 | – | – | – | around 1/25 | 3.75 | – | 1/10 | provoked the Ca^2+ influx | +1.3 Å | GUV integrity ([1]; GUVs PC/PG 9/1, 25°C): complete GUV destruction after few seconds; Cell toxicity (CHO cells; CHO cells, 48 hours of peptide incubation): the only toxic peptide; P/L ratio at which a significant calcein release from LUVs is induced ([5]; 5 min after peptide addition): 1/5
RRRRRRRRR-NH2 [R9, Polyarginine, cell-penetrating peptide, nine arginines, free N-terminal amino group, reference compound] | did not induce any increase in permeability towards ions | no | – | – | – | – | – | – | 0 | 8 | less than 20 minutes | 1/50 | 1/45 | 1/80 | – | – | – | – | – | –
RRWRRWWRRWWRRWRR-Bi [RW16, secondary amphipathic polyarginine-tryptophane peptide with biotin (Bi) on N-terminus] | – | yes | 6.08 | 5.89 | 2.18 | 2.25 | 3.83 | – | 0 | 14 | – | – | – | around 1/25 | 3.71 | 1/10 | 1/10 | provoked the Ca^2+ influx | 0.9 Å | –
RRWWRRWRR-NH2 [RW9, short secondary amphipathic polyarginine-tryptophane peptide, free N-terminal amino group] | did not induce any increase in permeability towards ions | no | 5.96 | 5.74 | 2.19 | 2.33 | 3.63 | −2.7 | 0 | 7 | – | 1/30 | – | 1/35 | 3.55 | 1/15 | 1/10 | – | – | –
